Assay results reported in patent publication US5326751A, “Enkephalin analogs” (Arizona Board of Regents on behalf of the University of …, priority 1992, dated 1994).
Bridge positions count the residues as written; N and C are the ends. Square brackets hold non-standard residues; d marks the D form. Peptide text beside a SMILES is read from it. Phe(4-NO2) = N[C@@H](Cc1ccc([N+](=O)[O-])cc1)C(=O)O; Phe(4-Br) = N[C@@H](Cc1ccc(Br)cc1)C(=O)O; Phe(4-Cl) = N[C@@H](Cc1ccc(Cl)cc1)C(=O)O; Phe(4-F) = N[C@@H](Cc1ccc(F)cc1)C(=O)O; Phe(4-I) = N[C@@H](Cc1ccc(I)cc1)C(=O)O; dPen = CC(C)(S)[C@@H](N)C(=O)O; dAbu = CC[C@@H](N)C(=O)O; Ac5c = NC1(C(=O)O)CCCC1; Abu = CC[C@H](N)C(=O)O

Experiments:
[1] = target: T1, mu-type opioid receptors (Rattus norvegicus, UniProt P33535); assay: displacement of [3H]CTOP in rat brain homogenate; format: binding; details: 25° C., read-out: IC50 (nM) ± S.E.E. [3H] CTOP
T1 construct: Whole brains with cerebellum removed were homogenized in 100 volumes of Tris-HCl buffer; from tissue; host or cells: rat brain (without cerebellum), washed homogenate
Protocol: (§1) The binding potencies of each compound for mu and delta receptors in rat brain extracts was determined by competition assays against radiolabelled compounds known to bind opioid receptors. […] The ability of a tested compound to displace tritiated ligands from their respective receptor molecules is a measure of the compound's binding potency for the receptor of the displaced ligand.
(§2) Brains from male Sprague-Dawley rats were rapidly removed following sacrifice. Whole brains with cerebellum removed were homogenized in 100 volumes of Tris-HCl buffer (pH 7.4 at 25°). Tissue homogenates were washed twice in the same buffer by centrifugation at 48,000 g for 10 min. Pellets were resuspended in the same buffer.
(§3) Filter-bound radioactivity was quantitated by liquid scintillation spectrophotometry with an efficiency of 46%. Radio-ligand displaced by 1 μM natrexone hydrochloride was defined as specific tissue binding.

[2] = target: T2, mouse vas deferens (MVD), primarily delta-type opiate receptors (Mus musculus, UniProt P32300); assay: mouse vas deferens (MVD) assay: inhibition of electrically induced muscle contractions; format: cell-based; details: for IC50: mouse vas deferens, electrically stimulated contractions, read-out: IC50 (nM) ± S.E.E. MVD
T2 construct: from tissue; host or cells: mouse vas deferens
Protocol: The MVD preparation contains primarily delta-type opiate receptors, with some kappa and mu receptors.
The mouse vas deferens was prepared following the method of Hughes, et al. cites Brit. J. Pharmacol., 53, 371-381 (1975). One pair of vasa deferentia was used in each experiment.

[3] = target: guinea pig ileum (GPI), primarily mu-type opiate receptors (Cavia porcellus, UniProt P97266); assay: guinea pig ileum (GPI) assay: inhibition of electrically induced muscle contractions; format: cell-based; parameters: inh in GPI: dose or concentration left out as unconfirmed; details: for IC50: guinea pig ileum, electrically stimulated contractions, read-out: IC50 (nM) ± S.E.E. GPI
Protocol: The guinea pig ileum longitudinal muscle-myenteric plexus preparation was prepared following the method of Kosterlitz, et al. Brit. J. Pharmacol., 39, 398-413 (1970). Agonists were added to the tissue bath and remained in contact with the tissue for a maximum of three minutes.

[4] = target: T3, delta-type opioid receptors (Rattus norvegicus, UniProt P33533); assay: displacement of [3H][p-Cl-Phe4]DPDPE in rat brain homogenate; format: binding; details: for IC50: rat brain homogenate, 1 nM radioligand, 25° C., 40 min, read-out: IC50 (nM) ± S.E.E. [3H] p-Cl-DPDPE
T3 construct: Whole brains with cerebellum removed were homogenized in 100 volumes of Tris-HCl buffer; from tissue; host or cells: rat brain (without cerebellum), washed homogenate
Protocol: as §1, §2
Total incubation volume was 2 ml. After 40 min., the mixture was rapidly filtered through Whatman GF/B glass fiber filters and washed 3 times with 5 ml of ice-cold buffer.
as §3

T2 sequence (P32300 whole entry): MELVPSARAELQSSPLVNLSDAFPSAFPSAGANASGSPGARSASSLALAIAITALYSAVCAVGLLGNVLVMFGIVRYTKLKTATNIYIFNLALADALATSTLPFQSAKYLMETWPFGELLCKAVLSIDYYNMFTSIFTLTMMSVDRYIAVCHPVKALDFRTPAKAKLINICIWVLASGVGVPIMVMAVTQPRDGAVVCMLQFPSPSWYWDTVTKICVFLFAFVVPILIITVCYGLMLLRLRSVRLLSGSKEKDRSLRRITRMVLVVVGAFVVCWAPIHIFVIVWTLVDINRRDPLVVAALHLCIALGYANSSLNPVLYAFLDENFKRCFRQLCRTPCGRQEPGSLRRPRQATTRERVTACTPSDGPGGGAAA
T1 sequence (P33535 whole entry): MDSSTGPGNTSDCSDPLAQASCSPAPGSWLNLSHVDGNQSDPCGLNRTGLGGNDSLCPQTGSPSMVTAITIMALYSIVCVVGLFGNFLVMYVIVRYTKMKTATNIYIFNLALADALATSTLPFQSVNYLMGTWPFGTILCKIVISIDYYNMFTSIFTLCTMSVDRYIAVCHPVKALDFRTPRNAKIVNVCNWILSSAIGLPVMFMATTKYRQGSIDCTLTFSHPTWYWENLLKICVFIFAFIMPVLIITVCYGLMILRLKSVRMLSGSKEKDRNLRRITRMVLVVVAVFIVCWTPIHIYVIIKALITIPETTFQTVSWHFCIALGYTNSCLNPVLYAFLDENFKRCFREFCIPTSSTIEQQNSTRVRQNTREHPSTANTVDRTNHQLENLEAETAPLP
Sequence of guinea pig ileum (GPI), primarily mu-type opiate receptors (P97266 whole entry, looked up): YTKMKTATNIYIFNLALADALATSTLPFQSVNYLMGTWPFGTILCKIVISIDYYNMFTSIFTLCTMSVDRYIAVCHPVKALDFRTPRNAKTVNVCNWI
T3 sequence (P33533 whole entry): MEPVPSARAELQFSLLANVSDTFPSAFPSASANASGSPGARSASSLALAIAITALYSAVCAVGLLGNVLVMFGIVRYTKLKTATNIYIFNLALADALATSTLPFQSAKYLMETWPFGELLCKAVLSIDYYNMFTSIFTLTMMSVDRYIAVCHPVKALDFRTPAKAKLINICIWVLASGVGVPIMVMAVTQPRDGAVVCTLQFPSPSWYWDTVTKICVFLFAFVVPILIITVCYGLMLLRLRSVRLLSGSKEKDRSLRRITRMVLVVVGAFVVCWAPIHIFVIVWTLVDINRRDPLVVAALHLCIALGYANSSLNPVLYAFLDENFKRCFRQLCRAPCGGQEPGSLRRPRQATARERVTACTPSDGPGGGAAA

Compound | IC50 [1] | IC50 [2] | IC50 [3] | IC50 [4] | RATIO (μ/δ), Table 1 ([2]; GPI IC50 / MVD IC50) | RATIO (μ/δ), Table 2 ([4]; [3H]CTOP IC50 / [3H]p-Cl-DPDPE IC50, rat brain) | inh in GPI [3]
C[C@@H]1NC(=O)[C@H](NC(=O)[C@@H](N)Cc2ccc(O)cc2)C(C)(C)SSC(C)(C)[C@H](C(=O)O)NC(=O)[C@H](Cc2ccc(Br)cc2)NC1=O [[p-Br--Phe^4 ]DPADPE] (H-Y[dPen]A[Phe(4-Br)][dPen]-OH; disulfide 2-5) | 2710 ± 453 nM | 2.95 ± 0.686 nM | 40800 ± 2950 nM | 5.3 ± 0.86 nM | – | – | –
C[C@@H]1NC(=O)[C@H](NC(=O)[C@@H](N)Cc2ccc(O)cc2)C(C)(C)SSC(C)(C)[C@H](C(=O)O)NC(=O)[C@H](Cc2ccc(I)cc2)NC1=O [[p-I--Phe^4 ]DPADPE] (H-Y[dPen]A[Phe(4-I)][dPen]-OH; disulfide 2-5) | 3670 ± 396 nM | 11 ± 1.23 nM | 30800 ± 1550 nM | 12.5 ± 0.5 nM | – | – | –
CC[C@H]1NC(=O)[C@H](NC(=O)[C@@H](N)Cc2ccc(O)cc2)C(C)(C)SSC(C)(C)[C@H](C(=O)O)NC(=O)[C@H](Cc2ccccc2)NC1=O [[D--Abu^3]DPDPE] (H-Y[dPen][dAbu]F[dPen]-OH; disulfide 2-5) | > 50000 nM | 1950 ± 204 nM | 29900 ± 2670 nM | 3380 ± 1070 nM | – | – | –
C[C@H]1NC(=O)[C@H](NC(=O)[C@@H](N)Cc2ccc(O)cc2)C(C)(C)SSC(C)(C)[C@H](C(=O)O)NC(=O)[C@H](Cc2ccccc2)NC1=O [[D--Ala^3]DPDPE] (H-Y[dPen][dA]F[dPen]-OH; disulfide 2-5) | > 35000 nM | 572 ± 131 nM | 33300 ± 817 nM | 535 ± 58 nM | – | – | –
C[C@@H]1NC(=O)[C@H](NC(=O)[C@@H](N)Cc2ccc(O)cc2)C(C)(C)SSC(C)(C)[C@H](C(=O)O)NC(=O)[C@H](Cc2ccc([N+](=O)[O-])cc2)NC1=O [[p-NO2 --Phe^4 ]DPADPE] (H-Y[dPen]A[Phe(4-NO2)][dPen]-OH; disulfide 2-5) | 712 ± 3 nM | 3.74 ± 0.356 nM | 13500 ± 1210 nM | 3.5 ± 0.25 nM | – | – | –
CC[C@@H]1NC(=O)[C@H](NC(=O)[C@@H](N)Cc2ccc(O)cc2)C(C)(C)SSC(C)(C)[C@H](C(=O)O)NC(=O)[C@H](Cc2ccccc2)NC1=O [[L--Abu^3]DPDPE] (H-Y[dPen][Abu]F[dPen]-OH; disulfide 2-5) | 12000 ± 938 nM | 84.9 ± 12.5 nM | 4870 ± 345 nM | 66.3 ± 30.4 nM | – | – | –
C[C@@H]1NC(=O)[C@H](NC(=O)[C@@H](N)Cc2ccc(O)cc2)C(C)(C)SSC(C)(C)[C@H](C(=O)O)NC(=O)[C@H](Cc2ccccc2)NC1=O [[L--Ala^3 ]DPDPE (DPADPE), L-Tyrosyl-D-penicillaminyl-L--alanyl-L-phenylalanyl-D-penicillaminyl cyclic (2-5) disulfide] (H-Y[dPen]AF[dPen]-OH; disulfide 2-5) | 11000 ± 13 nM | 11.8 ± 1.62 nM | 121000 ± 81400 nM | 18.4 ± 0.43 nM | 10,315 | 598 | –
CC1(C)SSC(C)(C)[C@@H](NC(=O)[C@@H](N)Cc2ccc(O)cc2)C(=O)NC2(CCCC2)C(=O)N[C@@H](Cc2ccccc2)C(=O)N[C@H]1C(=O)O [[AC5 C^3]DPDPE] (H-Y[dPen][Ac5c]F[dPen]-OH; disulfide 2-5) | 1760 ± 45 nM | 370 ± 162 nM | 857 ± 31.7 nM | 312 ± 39 nM | – | – | –
C[C@@H]1NC(=O)[C@H](NC(=O)[C@@H](N)Cc2ccc(O)cc2)C(C)(C)SSC(C)(C)[C@H](C(=O)O)NC(=O)[C@H](Cc2ccc(Cl)cc2)NC1=O [[p-Cl--Phe^4 ]DPADPE] (H-Y[dPen]A[Phe(4-Cl)][dPen]-OH; disulfide 2-5) | 1120 ± 260 nM | 1.94 ± 0.295 nM | 25500 ± 10300 nM | 3.7 ± 0.9 nM | – | – | –
C[C@@H]1NC(=O)[C@H](NC(=O)[C@@H](N)Cc2ccc(O)cc2)C(C)(C)SSC(C)(C)[C@H](C(=O)O)NC(=O)[C@H](Cc2ccc(F)cc2)NC1=O [[p-F--Phe^4 ]DPADPE] (H-Y[dPen]A[Phe(4-F)][dPen]-OH; disulfide 2-5) | 1460 ± 253 nM | 3.61 ± 0.367 nM | 4600 ± 1010 nM | 0.55 ± 0.14 nM | – | – | –
CC1(C)SSC(C)(C)[C@@H](NC(=O)[C@@H](N)Cc2ccc(O)cc2)C(=O)N[C@H](CO)C(=O)N[C@@H](Cc2ccccc2)C(=O)N[C@H]1C(=O)O [[D--Ser^3]DPDPE] (H-Y[dPen][dS]F[dPen]-OH; disulfide 2-5) | > 50000 nM | 1280 ± 245 nM | – | 764 ± 106 nM | – | – | 3 % inh
CC1(C)SSC(C)(C)[C@@H](NC(=O)[C@@H](N)Cc2ccc(O)cc2)C(=O)N[C@@H](CO)C(=O)N[C@@H](Cc2ccccc2)C(=O)N[C@H]1C(=O)O [[L--Ser^3]DPDPE] (H-Y[dPen]SF[dPen]-OH; disulfide 2-5) | > 22500 nM | 252 ± 32.5 nM | 39400 ± 7160 nM | 42 ± 3 nM | – | – | –
